Among the test systems are NCI-H522 lung; A498 renal; COLO 205 colon; DU-145 prostate; T-47D breast; KM12 colon; LOX IMVI melanoma; NCI-H23 lung; HT29 colon; IGROV1 ovarian; OVCAR-3 ovarian; HCT-15 colon; NCI-H460 lung; HCC-2998 colon; MOLT-4 leukemia; M14 melanoma; CCRF-CEM leukemia; SNB-19 CNS; U251 CNS; SK-MEL-28 melanoma.
Experiment in all cases: NCI anticancer screen, dose series, 48 h

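Five compound concentrations were applied to cells in 96-well plates for 48 hours; endpoints were derived by simple linear interpolation of the resulting dose-response curve. TGI: total growth inhibition.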

`C[C@H](CCC(=O)O[C@@H]1CC[C@@]2(C)C(CC[C@H]3[C@@H]4CC[C@H]([C@H](C)CCc5nc6ccccc6[nH]5)[C@@]4(C)CC[C@@H]32)C1)[C@H]1CC[C@H]2[C@@H]3CCC4C[C@H](O)CC[C@]4(C)[C@H]3CC[C@]12C` (stereo not given in full): the TGI in the assay with NCI-H522 lung, with A498 renal, with COLO 205 colon, with DU-145 prostate, in the assay with T-47D breast and with KM12 colon was above 100 µM throughout. The TGI in the assay with LOX IMVI melanoma, in the assay on NCI-H23 lung, in the assay with HT29 colon, in the assay on IGROV1 ovarian, in the assay with OVCAR-3 ovarian and in the assay on HCT-15 colon was above 100 µM throughout. The TGI in the assay with NCI-H460 lung is above 100 µM; with HCC-2998 colon, above 100 µM; with MOLT-4 leukemia, above 100 µM; in the assay with M14 melanoma, above 100 µM; in the assay with CCRF-CEM leukemia, above 100 µM; with SNB-19 CNS, 61.2 µM. Also, the TGI with U251 CNS and with SK-MEL-28 melanoma was above 100 µM each time.

In the case of `Oc1ccc2ccccc2c1-c1c(Nc2ccccc2)ccc2ccccc12`, the TGI with NCI-H522 lung turned out to be 29.6 µM; in the assay on A498 renal it was 36.2 µM; in the assay with COLO 205 colon it was 38 µM; with DU-145 prostate, 32.3 µM; in the assay on T-47D breast it was 39.5 µM; in the assay on KM12 colon it was 37.3 µM. Also, the TGI in the assay with LOX IMVI melanoma is 48.5 µM; in the assay on NCI-H23 lung, 30 µM; in the assay with HT29 colon, above 53.5 µM; in the assay with IGROV1 ovarian, 18.7 µM; in the assay with OVCAR-3 ovarian it was 22.7 µM; with HCT-15 colon it was above 56.4 µM. The TGI is 39.9 µM in the assay with NCI-H460 lung; 29.2 µM with HCC-2998 colon; 46.4 µM in the assay on MOLT-4 leukemia; 24.4 µM with M14 melanoma; 44.7 µM in the assay on CCRF-CEM leukemia; 37.4 µM in the assay on SNB-19 CNS. In addition, the TGI in the assay on U251 CNS was determined as 52 µM; in the assay with SK-MEL-28 melanoma it was 27.4 µM.

`CC/C(Cl)=N\OC(=O)Nc1ccccc1OC(F)(F)F`: the TGI was 2.9 µM with NCI-H522 lung; 45.4 µM with A498 renal; 3.79 µM with COLO 205 colon; 33.9 µM in the assay with DU-145 prostate; 14.4 µM with T-47D breast; 41.6 µM in the assay on KM12 colon. Moreover, the TGI with LOX IMVI melanoma was 5.65 µM; in the assay with NCI-H23 lung, 45.8 µM; in the assay with HT29 colon, 44.4 µM; with IGROV1 ovarian, 30.8 µM; with OVCAR-3 ovarian it was 22.2 µM; in the assay on HCT-15 colon it was above 24.2 µM. In addition, the TGI in the assay on NCI-H460 lung came to 44.2 µM; in the assay with HCC-2998 colon it was 37.8 µM; in the assay on MOLT-4 leukemia it was 4.77 µM; with M14 melanoma, 23.3 µM; in the assay on CCRF-CEM leukemia, 3.42 µM; with SNB-19 CNS, 53.9 µM. Besides, the TGI in the assay on U251 CNS is above 57.8 µM; with SK-MEL-28 melanoma it was 41.5 µM.

Regarding `COc1cc(C2SCC(=O)N2c2ccc(-c3ccc(-n4c(-c5ccccc5)nc5ccccc5c4=O)cc3)cc2)ccc1O` (stereo not given), the TGI is above 100 µM in the assay on NCI-H522 lung; above 100 µM in the assay on A498 renal; above 100 µM in the assay with COLO 205 colon; above 100 µM in the assay on DU-145 prostate; 71.5 µM in the assay with T-47D breast; above 100 µM with KM12 colon. Further, the TGI in the assay with LOX IMVI melanoma, with NCI-H23 lung, with HT29 colon, with IGROV1 ovarian, in the assay with OVCAR-3 ovarian and in the assay with HCT-15 colon was above 100 µM throughout. For the same compound, the TGI with NCI-H460 lung, in the assay on HCC-2998 colon, in the assay with MOLT-4 leukemia, in the assay on M14 melanoma, in the assay with CCRF-CEM leukemia and with SNB-19 CNS was above 100 µM each time. Also, the TGI in the assay with U251 CNS and in the assay with SK-MEL-28 melanoma was above 100 µM throughout.

Take `CCOC(=O)C1=C(OS(=O)(=O)C(F)(F)F)CCCC1`: the TGI in the assay with NCI-H522 lung, in the assay on A498 renal, with COLO 205 colon, in the assay with DU-145 prostate, in the assay on T-47D breast and in the assay with KM12 colon was above 100 µM in each case. Moreover, the TGI in the assay with LOX IMVI melanoma, in the assay with NCI-H23 lung, in the assay with HT29 colon, in the assay on IGROV1 ovarian, in the assay with OVCAR-3 ovarian and in the assay on HCT-15 colon was above 100 µM in each case. Moreover, the TGI with NCI-H460 lung, in the assay with HCC-2998 colon, with MOLT-4 leukemia, in the assay on M14 melanoma, with CCRF-CEM leukemia and with SNB-19 CNS was above 100 µM each time. The TGI with U251 CNS and with SK-MEL-28 melanoma was above 100 µM each time.

As for `COc1ccc(C2=NN(C(=O)c3ccccc3)C(O)(c3cc(F)c(Cl)cc3Cl)C2)cc1OC` (stereo not given), the TGI in the assay with NCI-H522 lung, in the assay on A498 renal, with COLO 205 colon, with DU-145 prostate, with T-47D breast and in the assay with KM12 colon was above 100 µM each time. The TGI in the assay on LOX IMVI melanoma is above 100 µM; with NCI-H23 lung, above 100 µM; in the assay with HT29 colon it was above 100 µM; with IGROV1 ovarian, above 100 µM; in the assay on OVCAR-3 ovarian, 69.3 µM; with HCT-15 colon, above 100 µM. The TGI with NCI-H460 lung, in the assay with HCC-2998 colon, in the assay with MOLT-4 leukemia, with M14 melanoma, with CCRF-CEM leukemia and in the assay with SNB-19 CNS was above 100 µM each time. The TGI in the assay with U251 CNS and in the assay on SK-MEL-28 melanoma was above 100 µM in each case.

The values above are taken from PubChem BioAssay (NCI).
